Results: patent US12059413B2, “Methods of inhibiting viruses using compositions targeting TSG101-ubiquitin interaction” (The Research Foundation for the State University of New York, priority 2016, dated 2024)

Experiments:
HIV-1 NL4-3 = assay: Spreading infection of Jurkat cells infected with NL4-3, p24 capture ELISA; format: cell-based
Description: FIG. 16A-B. N16 inhibition of HIV-1 transmission in a spreading infection in Jurkat cells. A) Schematic diagram summarizing experimental protocol. Jurkat cells (triplicate samples of 5×10^5/well) were incubated for 2 hr with HIV-1 NL4-3 in treatment media containing 50 μM N16 or control vehicle (DMSO). At the end of this period, unbound virus was removed by centrifugation and the cells washed once, resuspended in fresh media and returned to the 37° C. incubator. For the next 15 days, tissue culture media was removed daily by centrifugation and saved for virus measurement by p24 capture ELISA and cells were replenished with fresh control or N16 treatment media. B) ELISA readings. In control media (containing DMSO), virus replication peaked at day 11; in the presence of N16, production peaked at 13 days. […] Cells were monitoring periodically for viability by Trypan Blue assay. To test their ability to produce virus after this sustained exposure, at day 15 the N16-treated cells were washed, fresh media without inhibitor was added and the cells were incubated 4 days longer (to day 19). The supernatant was collected, the cells were washed again and then incubated for another 4 days in media with inhibitor, adding fresh inhibitor daily. The final supernatant was collected on day 23. […] Thus, the cells maintained the ability to produce virus and the virus in the population at 15 days was essentially as susceptible to N16 as the initial virus population used to infect the Jurkat cells. Number of independent trials: n=2.
To investigate whether the ability to bind the UEV domain could affect Tsg101's function during HIV's budding process, viral particle production was tested (FIG. 15). […] Addition of N16 at 24 hr post-transfection had little effect on budding even at higher concentrations (FIG. 15A, bottom). […] After 15 days, virus production was reduced by 15-fold. Cell viability was maintained under these conditions of sustained drug exposure as indicated by trypan blue viability assay every 3rd day. […] Following the re-addition of N16 to the media, virus titer at this point was reduced 50-fold 4 days indicating maintenance of drug susceptibility.

Hela cells = assay: Metabolic activity, WST-1 assay, Hela cells; format: cell-based; details: Homo sapiens, 24 hr in N16, WST-1, read-out: IC50 (95% confidence levels), metabolic activity
Description: FIG. 20A-C. N16 inhibition is virus-specific. A) N16 IC50 for Hela and 293T cells. […] Values were calculated by measuring metabolic activity (WST-1 Assay, Roche Applied Science) after cells were grown for 24 hr in N16. Data points represent the mean of 2 assays, 3 time points each for each cell line. […] Values in the absence or presence of N16 (50 uM) were 12% and 13%, respectively). C) N16 effect on EGF-stimulated EFGR degradation. Cells maintained for 24 hr in media containing DMSO alone or DMSO and N16 were stimulated with EGF ligand for a 90 min period and then assessed for EGFR steady-state level by Western analysis. EGFR levels for unstimulated and stimulated sample pairs are shown. A) n=2; B) n=2; C) n=2.
Cells were grown in 96-well trays for 24 hr with increasing levels of drug, metabolic activity was measured using WST-1colorimetric assay (Roche), and IC50 values were calculated (Prism 6, Graph Pad Software Inc.).

Plasma level in humans = format: in vivo, human; details: equivalent of the plasma level
Excerpt: Targeting of the Gag-Tsg101 interaction for inhibition of HIV budding has been an active field over the last fifteen years, mostly focusing on interference with PTAP binding (Tavassoli, A. et al. (2008); Chen, H., et al. (2010); Kim, S. E. et al. (2011); Lu, J. et al. (2014)). Theoretically, a synthetic peptide that mimics the PTAP motif could compete for the PTAP binding pocket of Tsg101 in cells. […]; Liu, F. et al. (2008)). Although high-resolution structures for the highest affinity complexes have not yet been elucidated, docking studies indicate that these PTAP inhibitors bind to the hydrophobic surface of Tsg101 around residue T56 (Kim, S. E. et al. (2011)). […]. […] Indeed, the dose of N16 provided is 40 milligrams. Seven microgram/ml is achieved in human plasma (Hunt, R. H. et al. (2005)), a level that is equivalent to a 20 micromolar concentration of the drug. The lowest concentration that we achieved in tissue culture assays when N16 was provided under the optimal conditions described in the text (c.f FIG. 15) was 25-50 micromolar. The current availability of the F15/N16 compounds in diverse long-acting slow-release formulations is another feature adaptable to further refined development of the F15/N16 compounds that could address issues pertaining to drug regimen adherence. […]

cells = assay: Cytotoxicity / cell metabolic activity on exposure to N16; format: cell-based
Excerpt: We investigated the specificity of the inhibitory effect. F15 and N16 impaired Tsg101-co-localization with Gag on the plasma membrane (c.f, FIG. 19) and reduced release of the VLPs assembled by Gag (c.f, FIG. 15). […] Cell metabolic activity was not affected after exposure to N16 for 24 hr; it decreased by less than 10% after exposure to N16 for 48 hr (not shown). Tsg101 localization to the midbody of dividing cells requires its recruitment to that location by centrosomal protein of 55k (CEP55) which binds a site in the Tsg101 Pro-rich domain (aa 154-166) (Lee, H. H., et al. (2008)). Finding this function unaffected at a concentration inhibitory to virus budding is consistent with the lack of any indication that cell division was reduced in the presence of N16. The lack of effect on this function also supports the specificity of N16 targeting as limited to functions of the Tsg101 UEV domain. EGF ligand-binding to EGFR on the cell surface signals receptor internalization, ubiquitination, and sequential ESCRT 0-, I-, II- and III-mediated transport to degradative compartments, ultimately lowering the EGFR steady-state level (Tomas, A., et al. (2014)). This trafficking requires the engagement of the P(T/S)AP-binding pocket in the Tsg101 UEV domain with the PSAP motif in hepatocyte growth factor-regulated tyrosine kinase substrate (Hrs), a component of ESCRT-0 (Lu, Q., et al. (2003)). The down-regulation function remained unimpaired at concentrations well above 50 JAM.

With `COc1ccc2[nH]c([S+]([O-])Cc3ncc(C)c(OC)c3C)nc2n1` (stereo not shown) [N16, tenatoprazole] the “reduction of virus production” value (HIV-1 NL4-3; 50 μM N16, Jurkat cells, peak values / after 15 days) was 15 fold, the “time of peak virus production” value (HIV-1 NL4-3; 50 μM N16, control peaked at day 11) was 13 days and the “resurgence of virus when N16 removed” value (HIV-1 NL4-3; media without inhibitor, 4 days (day 15 to 19)) was 10 fold. For the same molecule, the “reduction of virus on re-addition of N16” value (HIV-1 NL4-3; re-addition of N16, 4 days (to day 23)) was 50 fold, the “cell viability, trypan blue assay” value (HIV-1 NL4-3; sustained drug exposure, every 3rd day) was “maintained” and the IC50 (Hela cells) was 156 to 205 µM. For the same molecule, the “plasma level, equivalent concentration” value (Plasma level in humans) was 20 µM, the cytotoxicity (cells; 50 μM, 24 hr exposure) was “did not induce detectable cytotoxicity” and the cell metabolic activity (cells; exposure to N16 for 24 hr) was “not affected”. For the same molecule, the “decrease of cell metabolic activity” value (cells; exposure to N16 for 48 hr, not shown) was “less than 10%”.
